From article PMC9387934, “Randomized single oral dose phase 1 study of safety, tolerability, and pharmacokinetics of Iminosugar UV-4 Hydrochloride (UV-4B) in healthy subjects” (PLoS Neglected Tropical Diseases, 2022)
Where a name gives a salt, the structure may show the parent alone.

Experiment: Phase 1a single ascending dose study: UV-4 in pooled urine, urinary recovery and renal clearance
Type: in vivo, human
Settings: for CL renal: human, po; for Cumulative Amount Ae(0-last): corresponds to Ae(0-48); for Cumulative Percent fe(0-last): corresponds to fe(0-48)
Method: Serial blood samples were collected at pre-dose (0 hour) and 0.5, 1, 1.5, 2, 2.5, 3, 4, 6, 9, 12, 18, 24, 36, and 48 hours post-dose for assessment of UV-4 concentrations in plasma. Pooled urine samples were collected at pre-dose (-12 to 0 hour) and from 0 to 6, 6 to 12, 12 to 24, and 24 to 48 hours post-dose for assessment of UV-4 concentrations in urine. Plasma and urine concentrations of UV-4 were determined by means of validated, sensitive, and specific high-performance liquid chromatography/tandem mass spectrometric (LC-MS/MS) assays. UV-4 plasma and urine concentrations and PK parameters were listed and summarized by dose, as appropriate. Only the 48 subjects who received active investigational product were included in the PK analysis population.
8.2.3 Specimen Preparation, Handling, and Shipping
8.2.3.1 Instructions for Specimen Preparation, Handling, and Storage
The collected PK blood samples (2 mL) will be placed on ice after blood draw, and within 1 hour centrifuged at room temperature at approximately 3000 revolutions per minute for 15 minutes. Plasma will then be harvested and split into 4 aliquots of approximately 250 μ L and stored frozen at -20°C until shipped.
Urine samples (approximately 10 mL) for determination of UV-4 concentrations in urine will be taken from the total volume provided during each collection period. The total volume of each urine collection will be recorded along with the start/stop time for each urine collection interval.
Analysis of plasma and urine for UV-4 will be performed by the qualified bioanalytical laboratory, Quintiles Bioservices, Inc., Ithaca, New York 14950. Instructions for the proper preparation, handling, storage and shipping of specimens will be provided separately in a study-specific laboratory manual (i.e., Biopacket).
8.2.3.2 Specimen Shipment […]
The following single-dose urine PK parameters will be estimated from the UV-4 urine concentration-time data collected, as appropriate:
Ae Amount of UV-4 excreted in urine unchanged, calculated for each collection interval and cumulatively across intervals fe Fraction of UV-4 excreted in urine unchanged, calculated for each collection interval and cumulatively across intervals […]
Additional UV-4 PK parameters may be calculated at the discretion of the […]
Plasma concentrations and plasma and urine PK parameters will be summarized by treatment using descriptive statistics, as appropriate. Figures for the arithmetic mean (and SD) concentration-time data will be presented for all doses on both a linear and semi-logarithmic scale. Individual concentration-time data will be graphically presented on linear and semi-logarithmic scales. Scatter plots of individual and geometric mean PK parameters versus dose will be presented. Additional graphical presentations of PK data may be added at the discretion of the PK analyst.
Dose proportionality of Cmax, AUC(0-last), and AUC(0-inf) will be assessed graphically and statistically using the power model approach with the logarithm of PK parameters AUC(0-inf) and Cmax as the dependent variables and the logarithm of the dose as the independent variable: ([AUC(0-inf), AUC(0-last), or Cmax]=α *doseβ).
11.4.7 Deviation from Original Analysis Plan
Deviations from the formal statistical analysis plan will be noted in the final Clinical Study

[1] = urine, Cohort 1, 3 mg single oral dose, Ar Mean
[2] = urine, Cohort 1, 3 mg single oral dose, Median
[3] = urine, Cohort 2, 10 mg single oral dose, Ar Mean
[4] = urine, Cohort 2, 10 mg single oral dose, Median
[5] = urine, Cohort 3, 30 mg single oral dose, Ar Mean
[6] = urine, Cohort 3, 30 mg single oral dose, Median
[7] = urine, Cohort 4, 90 mg single oral dose, Ar Mean
[8] = urine, Cohort 4, 90 mg single oral dose, Median

In the case of `COCCCCCCCCCN1C[C@H](O)[C@@H](O)[C@H](O)[C@H]1CO` [UV-4B, N-(9’-methoxynonyl)-1-deoxynojirimycin hydrochloride], the “fe(0-last)” value (3 mg single oral dose, Ar Mean) is reported as 39.8%, the CL renal (both sexes, urine and plasma, 3 mg, 3 mg single oral dose, Ar Mean) is reported as 242 mL/min and the CL renal (both sexes, urine and plasma, 3 mg, 3 mg single oral dose, Geo Mean) is reported as 238 mL/min. The CL renal (both sexes, urine and plasma, 1000 mg, 1000 mg single oral dose, Ar Mean) was 198 mL/min, the CL renal (both sexes, urine and plasma, 1000 mg, 1000 mg single oral dose, Geo Mean) was 195 mL/min and the CL renal (both sexes, urine, 10 mg, 10 mg single oral dose, Geo Mean) was 190 mL/min. For the same molecule, the CL renal (both sexes, urine, 30 mg, 30 mg single oral dose, Ar Mean) was 210 mL/min, the CL renal (both sexes, urine, 30 mg, 30 mg single oral dose, Geo Mean) was 208 mL/min and the CL renal (both sexes, urine, 90 mg, 90 mg single oral dose, Ar Mean) was 228 mL/min. For the same molecule, the CL renal (both sexes, urine, 90 mg, 90 mg single oral dose, Geo Mean) was 227 mL/min, the CL renal (both sexes, urine, 180 mg, 180 mg single oral dose, Ar Mean) was 233 mL/min and the CL renal (both sexes, urine, 180 mg, 180 mg single oral dose, Geo Mean) was 232 mL/min. The CL renal (both sexes, urine, 360 mg, 360 mg single oral dose, Ar Mean) was 235 mL/min, the CL renal (both sexes, urine, 360 mg, 360 mg single oral dose, Geo Mean) was 228 mL/min and the CL renal (both sexes, urine, 720 mg, 720 mg single oral dose, Ar Mean) was 185 mL/min. The CL renal (both sexes, urine, 720 mg, 720 mg single oral dose, Geo Mean) was 182 mL/min, the CL renal (urine, 10 mg, 10 mg single oral dose, Ar Mean) was 195 mL/min and the “By-Interval Amount Ae(0-6)” value [1] was 0.607 mg. The “By-Interval Amount Ae(6-12)” value [1] was 0.215 mg, the “By-Interval Amount Ae(12-24)” value [1] was 0.202 mg and the “By-Interval Amount Ae(24-48)” value [1] was 0.170 mg. For the same molecule, the “Cumulative Amount Ae(0-12)” value [1] was 0.822 mg, the “Cumulative Amount Ae(0-24)” value [1] was 1.02 mg and the “Cumulative Amount Ae(0-last)” value [1] was 1.19 mg. For the same molecule, the “By-Interval Amount Ae(0-6)” value [2] was 0.624 mg, the “By-Interval Amount Ae(6-12)” value [2] was 0.216 mg and the “By-Interval Amount Ae(12-24)” value [2] was 0.230 mg. The “By-Interval Amount Ae(24-48)” value [2] was 0.173 mg, the “By-Interval Percent fe(0-6)” value [2] was 20.8% and the “By-Interval Percent fe(6-12)” value [2] was 7.19%. For the same molecule, the “By-Interval Percent fe(12-24)” value [2] was 7.65%, the “By-Interval Percent fe(24-48)” value [2] was 5.75% and the “Cumulative Amount Ae(0-12)” value [2] was 0.892 mg. The “Cumulative Amount Ae(0-24)” value [2] was 1.08 mg, the “Cumulative Percent fe(0-12)” value [2] was 29.7% and the “Cumulative Percent fe(0-24)” value [2] was 36.0%. The “Cumulative Amount Ae(0-last)” value [2] was 1.23 mg, the “Cumulative Percent fe(0-last)” value [2] was 40.9% and the “By-Interval Amount Ae(0-6)” value [3] was 2.67 mg. For the same molecule, the “By-Interval Amount Ae(6-12)” value [3] was 0.859 mg, the “By-Interval Amount Ae(12-24)” value [3] was 0.608 mg and the “By-Interval Amount Ae(24-48)” value [3] was 0.503 mg. The “By-Interval Percent fe(0-6)” value [3] was 26.7%, the “By-Interval Percent fe(6-12)” value [3] was 8.59% and the “By-Interval Percent fe(12-24)” value [3] was 6.08%. The “By-Interval Percent fe(24-48)” value [3] was 5.03%, the “Cumulative Amount Ae(0-12)” value [3] was 3.53 mg and the “Cumulative Amount Ae(0-24)” value [3] was 4.13 mg. For the same molecule, the “Cumulative Percent fe(0-12)” value [3] was 35.3%, the “Cumulative Percent fe(0-24)” value [3] was 41.3% and the “Cumulative Amount Ae(0-last)” value [3] was 4.64 mg. For the same molecule, the “Cumulative Percent fe(0-last)” value [3] was 46.4%, the “By-Interval Amount Ae(0-6)” value [4] was 2.77 mg and the “By-Interval Amount Ae(6-12)” value [4] was 0.883 mg. The “By-Interval Amount Ae(12-24)” value [4] was 0.635 mg, the “By-Interval Amount Ae(24-48)” value [4] was 0.503 mg and the “By-Interval Percent fe(0-6)” value [4] was 27.7%. For the same molecule, the “By-Interval Percent fe(6-12)” value [4] was 8.83%, the “By-Interval Percent fe(12-24)” value [4] was 6.35% and the “By-Interval Percent fe(24-48)” value [4] was 5.03%. The “Cumulative Amount Ae(0-12)” value [4] was 3.71 mg, the “Cumulative Amount Ae(0-24)” value [4] was 4.34 mg and the “Cumulative Percent fe(0-12)” value [4] was 37.1%. For the same molecule, the “Cumulative Percent fe(0-24)” value [4] was 43.4%, the “Cumulative Amount Ae(0-last)” value [4] was 4.82 mg and the “Cumulative Percent fe(0-last)” value [4] was 48.2%. The “By-Interval Amount Ae(0-6)” value [5] was 10.6 mg, the “By-Interval Amount Ae(6-12)” value [5] was 2.45 mg and the “By-Interval Amount Ae(12-24)” value [5] was 1.61 mg. For the same molecule, the “By-Interval Amount Ae(24-48)” value [5] was 0.887 mg, the “By-Interval Percent fe(0-6)” value [5] was 35.3% and the “By-Interval Percent fe(6-12)” value [5] was 8.16%. For the same molecule, the “By-Interval Percent fe(12-24)” value [5] was 5.36%, the “By-Interval Percent fe(24-48)” value [5] was 2.96% and the “Cumulative Amount Ae(0-12)” value [5] was 13.0 mg. The “Cumulative Amount Ae(0-24)” value [5] was 14.6 mg, the “Cumulative Percent fe(0-12)” value [5] was 43.4% and the “Cumulative Percent fe(0-24)” value [5] was 48.8%. The “Cumulative Amount Ae(0-last)” value [5] was 15.5 mg, the “Cumulative Percent fe(0-last)” value [5] was 51.7% and the “By-Interval Amount Ae(0-6)” value [6] was 10.5 mg. For the same molecule, the “By-Interval Amount Ae(6-12)” value [6] was 2.47 mg, the “By-Interval Amount Ae(12-24)” value [6] was 1.55 mg and the “By-Interval Amount Ae(24-48)” value [6] was 0.96 mg. For the same molecule, the “By-Interval Percent fe(0-6)” value [6] was 34.9%, the “By-Interval Percent fe(6-12)” value [6] was 8.24% and the “By-Interval Percent fe(12-24)” value [6] was 5.14%. For the same molecule, the “By-Interval Percent fe(24-48)” value [6] was 3.20%, the “Cumulative Amount Ae(0-12)” value [6] was 12.9 mg and the “Cumulative Amount Ae(0-24)” value [6] was 14.6 mg. For the same molecule, the “Cumulative Percent fe(0-12)” value [6] was 43.0%, the “Cumulative Percent fe(0-24)” value [6] was 48.7% and the “Cumulative Amount Ae(0-last)” value [6] was 15.5 mg. For the same molecule, the “Cumulative Percent fe(0-last)” value [6] was 51.7%, the “By-Interval Amount Ae(0-6)” value [7] was 38.1 mg and the “By-Interval Amount Ae(6-12)” value [7] was 6.05 mg. For the same molecule, the “By-Interval Amount Ae(12-24)” value [7] was 3.89 mg, the “By-Interval Amount Ae(24-48)” value [7] was 1.61 mg and the “By-Interval Percent fe(0-6)” value [7] was 42.2%. The “By-Interval Percent fe(6-12)” value [7] was 6.72%, the “By-Interval Percent fe(12-24)” value [7] was 4.32% and the “By-Interval Percent fe(24-48)” value [7] was 1.79%. The “Cumulative Amount Ae(0-12)” value [7] was 44.1 mg, the “Cumulative Amount Ae(0-24)” value [7] was 48.0 mg and the “Cumulative Percent fe(0-12)” value [7] was 49.0%. The “Cumulative Percent fe(0-24)” value [7] was 53.3%, the “Cumulative Amount Ae(0-last)” value [7] was 49.6 mg and the “Cumulative Percent fe(0-last)” value [7] was 55.1%. The “By-Interval Amount Ae(0-6)” value [8] was 39.3 mg and the “By-Interval Amount Ae(6-12)” value [8] was 6.36 mg.
